Measured values as given in article PMC7036753, “Lipidated Analogs of the LL-37-Derived Peptide Fragment KR12—Structural Analysis, Surface-Active Properties and Antimicrobial Activity” (International Journal of Molecular Sciences, 2020).
Values after ≈ are worked out from the molar mass of the structure shown. Ends that are not written are not given here. Peptide text beside a SMILES is read from it. * marks the point of attachment. Decanoyl = CCCCCCCCCC(=O)*; X1 = O=C(/C=C/c1ccccc1)*; Butyryl = CCCC(=O)*

Tests used:
[1] = tested on: E. faecium ATCC 700221; assay type: cell-based, Enterococcus faecium; conditions: ATCC 700221, 18 h
Protocol: (§1) Examination of antimicrobial activity of the test compounds was conducted on reference strains of bacteria assigned to ESKAPE group of pathogens: Enterococcus faecium ATCC 700221, Klebsiella pneumoniae ATCC 700603, Acinetobacter baumannii ATCC BAA-1605, Pseudomonas aeruginosa ATCC 9027, Klebsiella aerogenes ATCC 13048 (formerly Enterobacter aerogenes) and reference strains of Staphylococcus aureus, namely: S. aureus ATCC 25923, S. aureus ATCC 6538, S. aureus ATCC 33591 (MRSA), S. aureus ATCC 9144 and S. aureus ATCC 12598. All the strains were stored at −80 °C in Roti®-Store cryo vials (Carl Roth GmbH, Karlsruhe, Germany) and before the tests were transferred into fresh Mueller-Hinton Medium (BioMaxima, Lublin, Poland) and incubated for 24 h at 37 °C. Subsequently, each bacterial inoculum was seeded on Mueller-Hinton Agar plates (BioMaxima) and incubated again for 24 h. The cultures prepared in this way were used in further antimicrobial assays and prepared as described above. The MIC values were determined by the broth microdilution method according to Clinical and Laboratory Standards Institute Protocol. For this purpose, initial inoculums of bacteria (0.5 × 10^5 colony forming unit (CFU)/mL) in Mueller–Hinton Broth were exposed to the ranging concentrations of compounds (0.5–256 µg/mL) and incubated for 18 h at 37 °C. The experiments were conducted on 96-well microtiter plates, with a final volume of 100 µL. Cell densities were adjusted spectrophotometrically (Multiskan™ GO Microplate Spectrophotometer, Thermo Scientific) at 600 nm. The MICs were taken as the lowest drug concentration at which a visible growth of microorganisms was inhibited. All experiments were conducted in triplicate and included positive (growth) and negative (sterility) controls.

[2] = tested on: ESKAPE strains; assay type: cell-based; conditions: 24 h
Protocol: as §1, with “For this purpose, initial inoculums of bacteria (0.5 × 10^5 colony forming unit (CFU)/mL) in Mueller–Hinton Broth were exposed to the ranging concentrations of compounds (0.5–256 µg/mL) and incubated for 18 h at 37 °C.” left out, “The MICs were taken as the lowest drug concentration at which a visible growth of microorganisms was inhibited. All experiments were conducted in triplicate and included positive (growth) and negative (sterility) controls.” left out

[3] = tested on: K. pneumoniae ATCC 700603; assay type: cell-based, Klebsiella pneumoniae; conditions: ATCC 700603, 18 h
Protocol: as §1

[4] = tested on: reference strains of S. aureus; assay type: cell-based, Staphylococcus aureus; conditions: reference strains of, 24 h
Protocol: as §1, with “For this purpose, initial inoculums of bacteria (0.5 × 10^5 colony forming unit (CFU)/mL) in Mueller–Hinton Broth were exposed to the ranging concentrations of compounds (0.5–256 µg/mL) and incubated for 18 h at 37 °C.” left out

[5] = tested on: A. baumannii ATCC BAA-1605; assay type: cell-based, Acinetobacter baumannii; conditions: ATCC BAA-1605, 18 h
Protocol: as §1

[6] = tested on: K. aerogenes ATCC 13048; assay type: cell-based, Klebsiella aerogenes; conditions: ATCC 13048, 18 h
Protocol: as §1

[7] = tested on: S. aureus ATCC 12598; assay type: cell-based, Staphylococcus aureus; conditions: ATCC 12598, 18 h
Protocol: as §1

[8] = tested on: S. aureus ATCC 6538; assay type: cell-based, Staphylococcus aureus; conditions: ATCC 6538, 18 h
Protocol: as §1

[9] = tested on: S. aureus ATCC 33591 (MRSA); assay type: cell-based, Staphylococcus aureus; conditions: ATCC 33591, 18 h
Protocol: as §1

[10] = tested on: S. aureus ATCC 9144; assay type: cell-based, Staphylococcus aureus; conditions: ATCC 9144, 18 h
Protocol: as §1

[11] = tested on: S. aureus ATCC 25923; assay type: cell-based, Staphylococcus aureus; conditions: ATCC 25923, 18 h
Protocol: as §1

[12] = tested on: P. aeruginosa ATCC 9027; assay type: cell-based, Pseudomonas aeruginosa; conditions: ATCC 9027, 18 h
Protocol: as §1

[13] = tested on: S. aureus ATCC 9144 biofilm; assay type: cell-based, Staphylococcus aureus; conditions: ATCC 9144, 24 h
Protocol: (§2) The MBECs values were determined according to the method reported previously. Briefly, 24-h cultures of S. aureus, namely: S. aureus ATCC 25923, S. aureus ATCC 6538, S. aureus ATCC 33591 (MRSA), S. aureus ATCC 9144 and S. aureus ATCC 12598 were diluted to a concentration of 0.5 × 10^7 CFU/mL and added to the test wells of polystyrene microdilution flat-bottom plates. After 24-h of incubation at 37 °C, the wells were rinsed three times with PBS to remove non-adherent cells. Subsequently, 100 μL of the test compounds over a concentration range 0.5–256 µg/mL were added to each well and incubated again for 24 h at 37 °C. After this period, 20 μL of the resazurin (7-hydroxy-3H-phenoxazin-3-one-10-oxide, 4 mg/mL) solution was added to each well. After 1 h of incubation, the MBECs were read out. The determined values were recorded as the lowest concentration at which the reduction of resazurin (from blue to pink) was lower or equal to 10 ± 0.5% as compared to the positive (100%) and negative (0%) controls. All experiments were performed in triplicate.

[14] = tested on: S. aureus ATCC 33591 (MRSA) biofilm; assay type: cell-based, Staphylococcus aureus; conditions: ATCC 33591, 24 h
Protocol: as §2

[15] = tested on: S. aureus ATCC 12598 biofilm; assay type: cell-based, Staphylococcus aureus; conditions: ATCC 12598, 24 h
Protocol: as §2

[16] = tested on: S. aureus ATCC 6538 biofilm; assay type: cell-based, Staphylococcus aureus; conditions: ATCC 6538, 24 h
Protocol: as §2

[17] = tested on: S. aureus ATCC 25923 biofilm; assay type: cell-based, Staphylococcus aureus; conditions: ATCC 25923, 24 h
Protocol: as §2

[18] = tested on: human keratinocytes (HaCaT); assay type: cell-based; conditions: 24 h
Protocol: The cytotoxicity of test compounds (IC50) was evaluated for human keratinocytes (HaCaT, ATCC) using classic MTT assay on 96-well plates. In this assay, a colorimetric determination of the cell metabolic activity was carried out. Specifically, the color intensity reflects the number of live cells that can be measured spectrophotometrically. […] A day after plating 500 cells per well, a series of concentrations (0.5–500 μg/mL) of the test compounds were added. Dimethyl sulfoxide (DMSO) was used as a control in cells at a final concentration of 1.0% (v/v), which was related to the maximal concentration of the solvent compounds used in the experiment. After 24 h of incubation with test compounds, a medium containing 1 mg/mL of MTT was added up to a final concentration of 0.5 mg/mL and subsequently incubated at 37 °C for 4 h. Then, the medium was aspirated and the formazan product was solubilized with DMSO. The background absorbance at 630 nm was subtracted from that at 570 nm for each well (Epoch, BioTek Instruments, Winooski, VT, USA). Six replicates were conducted for each concentration. All experiments were repeated at least twice and the resulting IC50 values were calculated with a GraFit 7 software (v. 7.0, Erithacus, Berkley, CA, USA).

Compound	MIC [1] [mg/L]	MIC range [2] [mg/L]	MIC [3] [mg/L]	GM (geometric mean of the MIC values against S. aureus) [4] [mg/L]	MIC [5] [mg/L]	MIC [6] [mg/L]	MIC [7] [mg/L]	MIC [8] [mg/L]	MIC [9] [mg/L]	MIC [10] [mg/L]	MIC [11] [mg/L]	MIC [12] [mg/L]	MBEC [13] [µg/mL]	MBEC [14] [µg/mL]	MBEC [15] [µg/mL]	MBEC [16] [µg/mL]	MBEC [17] [µg/mL]	IC50 [18] [mg/L]
CC[C@H](C)[C@H](NC(=O)[C@H](CCCNC(=N)N)NC(=O)[C@H](CCC(N)=O)NC(=O)[C@@H](NC(=O)[C@@H](NC(=O)[C@H](CCCNC(=N)N)NC(=O)[C@H](CCCCN)NC(=O)/C=C/c1ccccc1)[C@@H](C)CC)C(C)C)C(=O)N[C@@H](CCCCN)C(=O)N[C@@H](CC(=O)O)C(=O)N[C@@H](Cc1ccccc1)C(=O)N[C@@H](CC(C)C)C(=O)N[C@@H](CCCNC(=N)N)C(N)=O [IX, trans-Cinnamic acid-KR12-NH2] (X1-KRIVQRIKDFLR-NH2)	1 (≈ 0.588 µM)	1 to 8	4 (≈ 2.35 µM)	4.00	4 (≈ 2.35 µM)	4 (≈ 2.35 µM)	4 (≈ 2.35 µM)	2 (≈ 1.18 µM)	4 (≈ 2.35 µM)	4 (≈ 2.35 µM)	8 (≈ 4.7 µM)	4 (≈ 2.35 µM)	8	16	4	8	32	10.00 (≈ 5.88 µM)
KRIVQRIKDFLR-NH2 [X, KRIVQRIKDFLR-NH2]	8		>256	>256.00	256	>256	>256	256	>256	>256	>256	16	>256	>256	>256	>256	>256	74.60
CCCCCCCCCC(=O)N[C@@H](CCCCN)C(=O)N[C@@H](CCCNC(=N)N)C(=O)N[C@H](C(=O)N[C@H](C(=O)N[C@@H](CCC(N)=O)C(=O)N[C@@H](CCCNC(=N)N)C(=O)N[C@H](C(=O)N[C@@H](CCCCN)C(=O)N[C@@H](CC(=O)O)C(=O)N[C@@H](Cc1ccccc1)C(=O)N[C@@H](CC(C)C)C(=O)N[C@@H](CCCNC(=N)N)C(N)=O)[C@@H](C)CC)C(C)C)[C@@H](C)CC [V, C10-KR12-NH2] (Decanoyl-KRIVQRIKDFLR-NH2)	2 (≈ 1.16 µM)		16 (≈ 9.27 µM)	4.00	8 (≈ 4.64 µM)	16 (≈ 9.27 µM)	4 (≈ 2.32 µM)	4 (≈ 2.32 µM)	4 (≈ 2.32 µM)	4 (≈ 2.32 µM)	4 (≈ 2.32 µM)	8 (≈ 4.64 µM)	16	32	8	32	32	5.97 (≈ 3.46 µM)
CCCC(=O)N[C@@H](CCCCN)C(=O)N[C@@H](CCCNC(=N)N)C(=O)N[C@H](C(=O)N[C@H](C(=O)N[C@@H](CCC(N)=O)C(=O)N[C@@H](CCCNC(=N)N)C(=O)N[C@H](C(=O)N[C@@H](CCCCN)C(=O)N[C@@H](CC(=O)O)C(=O)N[C@@H](Cc1ccccc1)C(=O)N[C@@H](CC(C)C)C(=O)N[C@@H](CCCNC(=N)N)C(N)=O)[C@@H](C)CC)C(C)C)[C@@H](C)CC [II, C4-KR12-NH2] (Butyryl-KRIVQRIKDFLR-NH2)	4 (≈ 2.44 µM)		128 (≈ 78 µM)	73.52	>256	128 (≈ 78 µM)	64 (≈ 39 µM)	32 (≈ 19.5 µM)	128 (≈ 78 µM)	64 (≈ 39 µM)	128 (≈ 78 µM)	32 (≈ 19.5 µM)	128	128	128	128	256	38.73 (≈ 23.6 µM)
